Source: ChEMBL document CHEMBL1201862, “PubChem BioAssay data set” (2004)
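The compound was tested at five concentrations on cells cultured in 96-well plates, with a 48-hour exposure period. Here, GI50 denotes the concentration required for 50% inhibition of growth.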 Active and inactive are the calls of the source. Cut-off read from the data, not from the text of the source: active = GI50 up to about 1.1 µM and inactive = higher.

What was measured:
Experiment in all cases: NCI anticancer screen, dose series, 48 h
[1] = test system: DLD-1
[2] = test system: M19-MEL
[3] = test system: XF498
[4] = test system: KM-20L2
[5] = test system: HOP-18
[6] = test system: DMS-114
[7] = test system: SNB-78
[8] = test system: DMS-273
[9] = test system: RXF 631

Measured: GI50

C=C(CN(C)C)C(=O)c1ccc(C(=O)C(=C)CN(C)C)cc1
inactive: [1] > 100 µM | [2] > 100 µM | [3] > 100 µM | [4] > 100 µM | [5] > 100 µM

C[C@@]12CCCC(=O)N1[C@@H](CO)C(c1ccccc1)O2 (some centres not stated)
inactive: [1] > 100 µM | [2] > 100 µM | [6] > 100 µM | [3] > 100 µM | [4] > 100 µM | [7] > 100 µM | [8] > 100 µM | [5] > 100 µM

Cc1cn(C2CC(n3cncn3)C(C(C)O)O2)c(=O)[nH]c1=O (configuration not stated)
inactive: [1] > 100 µM | [2] > 100 µM | [6] > 100 µM | [3] > 100 µM | [4] > 100 µM | [7] > 100 µM | [8] > 100 µM | [5] > 100 µM

O=C1N(c2ccccc2)C(=O)C2(SC=NN2Cc2ccccc2)N1c1ccccc1 (configuration not stated)
inactive: [1] > 100 µM | [2] > 100 µM | [6] > 100 µM | [3] > 100 µM | [4] > 100 µM | [7] > 100 µM | [5] > 100 µM

CC(C)NC1CCCCC2c3cc(F)ccc3[C@]12O (some centres not stated)
inactive: [1] > 100 µM | [2] > 100 µM | [6] > 100 µM | [4] > 100 µM | [7] > 100 µM | [8] > 100 µM | [5] > 100 µM

CN1C2C=C(c3ccccc3)CC1CC2 (configuration not stated)
inactive: [1] > 100 µM | [2] > 100 µM | [3] > 100 µM | [4] > 100 µM | [5] > 100 µM

BrC1=CC=C2NC=CC3=CC=NC1C32 (configuration not stated)
inactive: [1] 19 µM | [2] 14.1 µM | [6] 14 µM | [3] 22.9 µM | [4] 19.7 µM | [7] 29.6 µM | [9] 27.2 µM | [8] 7.14 µM | [5] 14.1 µM

CC1(C)O[C@@H](CCl)C[C@@H](C#N)O1
inactive: [1] > 100 µM | [2] > 100 µM | [6] > 100 µM | [4] > 100 µM | [7] > 100 µM | [8] > 100 µM | [5] > 100 µM

CNS(=O)(=O)NN(C)S(=O)(=O)c1ccc(OC)cc1
inactive: [1] > 100 µM | [2] > 100 µM | [6] > 100 µM | [3] > 100 µM | [4] > 100 µM | [9] > 100 µM | [8] > 100 µM

O=C(c1ccccc1)N1CCc2c([nH]c3ccccc23)C1
inactive: [1] 64.7 µM | [2] 36.8 µM | [6] 20.4 µM | [3] 20.8 µM | [4] 54.1 µM | [9] > 100 µM | [8] 30.7 µM | [5] 52.6 µM

COc1cc(/C=C2\NC(=O)C(Cc3cc(OC)c(OC)c(C)c3OC)N(C(C)=O)C2=O)c(OC)c(C)c1OC (configuration not stated)
inactive: [1] > 100 µM | [2] > 100 µM | [6] 60.5 µM | [4] > 100 µM | [8] > 100 µM | [5] 28.6 µM

Cc1cc2c(=O)cc(-c3ccc(F)cc3)oc2c(C(=O)O)c1C
inactive: [1] > 100 µM | [2] > 100 µM | [6] > 100 µM | [3] > 100 µM | [4] > 100 µM | [7] > 100 µM | [9] > 100 µM | [8] > 100 µM | [5] > 100 µM

C[C@@H](c1ccccc1)N(CC#N)C1CCC[C@H]1O (some centres not stated)
inactive: [2] > 100 µM | [3] > 100 µM | [4] > 100 µM | [7] > 100 µM | [9] > 100 µM | [8] > 100 µM | [5] > 100 µM

CC1(C)CC2CC(CC(C)(C)C2=O)C1=O
inactive: [1] > 100 µM | [2] > 100 µM | [6] > 100 µM | [3] > 100 µM | [4] > 100 µM | [7] > 100 µM | [9] > 100 µM | [8] > 100 µM | [5] > 100 µM

Nc1ccc(C(=O)NN2C(=O)C(Cl)C2c2ccccc2Cl)cc1 (configuration not stated)
inactive: [1] 10.8 µM | [2] 7.94 µM | [6] 5.48 µM | [3] 17.5 µM | [4] 15.8 µM | [7] 15.7 µM | [8] 3.2 µM | [5] 3.1 µM

O=C(O)CCNS(=O)(=O)c1ccc([N+](=O)[O-])cc1
inactive: [1] > 100 µM | [2] > 100 µM | [3] > 100 µM | [4] > 100 µM | [9] > 100 µM | [8] > 100 µM | [5] > 100 µM

CC1(C)OC(=S)N(c2ccccc2)C12C=Cc1cc3ccccc3nc1S2 (configuration not stated)
inactive: [1] 40.6 µM | [2] 93.8 µM | [6] > 100 µM | [3] > 100 µM | [4] > 100 µM | [8] 97.3 µM

COC(=O)C1CC(C(=O)OC)c2nc3cc([N+](=O)[O-])ccc3nc21 (configuration not stated)
inactive: [1] 31 µM | [2] 61 µM | [6] 16.3 µM | [3] > 96.6 µM | [4] 63.7 µM | [7] > 100 µM | [9] > 73.3 µM | [8] 44.5 µM | [5] > 100 µM

Cc1ccc(-c2nnc(-c3nn(-c4ccccc4)c4nc5ccccc5nc34)o2)cc1
inactive: [1] 16.9 µM | [2] 22.1 µM | [6] 15.8 µM | [3] 11.4 µM | [4] 42.4 µM | [7] 19.8 µM | [8] 20.1 µM | [5] 27.9 µM

Cc1cc(=O)c2c(O)cc3c(c2o1)CC=C(COC1OC(COC2OC(CO)C(O)C(O)C2O)C(O)C(O)C1O)CO3 (configuration not stated)
inactive: [1] > 100 µM | [2] > 100 µM | [6] > 100 µM | [3] > 100 µM | [4] > 100 µM | [7] > 100 µM | [8] > 100 µM

CCOc1cccc2ccc[n+](CC)c12
inactive: [1] > 100 µM | [2] 41 µM | [6] 32.7 µM | [3] 42.9 µM | [4] 52.2 µM | [9] > 100 µM | [8] 35.8 µM | [5] > 100 µM

CC(=O)c1cccc(NCn2nnc3ccccc32)c1
inactive: [1] > 100 µM | [2] > 100 µM | [6] > 100 µM | [3] > 100 µM | [4] > 100 µM | [8] > 100 µM | [5] > 100 µM

O=C(O)CSc1nnc(Cc2ccccc2)[nH]1
inactive: [1] > 100 µM | [2] > 100 µM | [6] > 100 µM | [3] 15.7 µM | [7] > 100 µM | [9] > 100 µM | [5] > 100 µM

CC(=O)Oc1cc2c(=O)oc3c(OC(C)=O)c(OC(C)=O)c(OC(C)=O)c4c(=O)oc(c1OC(C)=O)c2c34
inactive: [1] > 100 µM | [2] 17.9 µM | [6] 21.6 µM | [3] 32.5 µM | [4] 35.3 µM | [7] 39.4 µM | [9] 25.4 µM | [8] > 100 µM | [5] 32.1 µM

COc1ccc2c3c1C(=O)CCC3CO2 (configuration not stated)
inactive: [1] > 100 µM | [2] > 100 µM | [6] > 100 µM | [3] > 100 µM | [4] > 100 µM | [7] > 100 µM | [9] > 100 µM | [8] > 100 µM

Cn1cnc([N+](=O)[O-])c1SC1=NCCS1
inactive: [1] 31.4 µM | [2] 49.4 µM | [3] > 100 µM | [7] 42.9 µM | [8] 98.6 µM | [5] 4.24 µM

CCn1c2c(n(CC)c1=S)-c1c(n(CC)c(=S)n1CC)SSSS2
inactive: [1] 1.63 µM | [2] 7.78 µM | [6] 15.8 µM | [3] 1.52 µM | [4] 11.6 µM | [7] 11.4 µM | [9] 15.3 µM | [8] 17.5 µM | [5] 8.85 µM

CC#C[I+]c1ccccc1
inactive: [1] 14.3 µM | [2] 17.8 µM | [6] 13.2 µM | [3] 16.7 µM | [4] 17 µM | [7] 22.7 µM | [9] 31.1 µM | [8] 13.1 µM | [5] 16.6 µM

COC(OC)c1cccc2c1C1(O)CCC3(CC21)OCCCCO3 (configuration not stated)
inactive: [1] > 100 µM | [2] > 100 µM | [6] > 100 µM | [4] > 100 µM | [7] > 100 µM | [8] > 100 µM | [5] > 100 µM
